Measured values from US11597702B2, “Substituted pyrazoles FFA4/GPR120 receptor agonists” (AXXAM S.P.A., priority 2018, dated 2023).

target: T1, GPR120 (Homo sapiens, UniProt Q5NUL3); assay: GPR120 agonism in CHO mitoPhotinaGPR120 cell based assay with fluorescent (Fluo-8 calcium, FLIPRTetra) readout, Agonist Mode, dose response; conditions: CHO mitoPhotinaGPR120 cells, Fluo-8 No Wash Ca2+ dye, dose response in quadruplicate, 0.0033% fatty acid free BSA
T1 construct: expressed in transfected cells; host or cells: CHO mitoPhotinaGPR120 cells
T1 sequence (Q5NUL3 1-361): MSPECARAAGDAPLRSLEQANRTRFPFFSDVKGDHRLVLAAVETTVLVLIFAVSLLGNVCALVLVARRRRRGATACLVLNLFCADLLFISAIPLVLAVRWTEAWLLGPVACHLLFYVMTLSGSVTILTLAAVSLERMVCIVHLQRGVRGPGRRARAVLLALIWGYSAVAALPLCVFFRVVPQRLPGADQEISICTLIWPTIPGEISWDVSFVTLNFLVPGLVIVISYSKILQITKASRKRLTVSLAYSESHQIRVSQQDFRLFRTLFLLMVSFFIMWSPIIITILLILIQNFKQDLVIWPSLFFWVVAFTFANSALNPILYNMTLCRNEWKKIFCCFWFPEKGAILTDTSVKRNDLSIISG
Procedure: Compounds of the invention were tested for GPR120 agonism in a CHO mitoPhotinaGPR120 cell based assay with fluorescent readout in Agonist Mode in dose response in quadruplicate with intra-plate modality.
Twenty (20) h after seeding, growth medium was manually removed and cells were starved in the presence of 25 μL/w of Standard Tyrode's Buffer. After 3 h, cells were loaded with 20 μL/w of 0.5× Fluo-8 No Wash (AAT Bioquest, Inc.) Ca2+ sensitive dye prepared in Standard Tyrode's Buffer. Cells were incubated for 1 h at room temperature in the dark. Ten (10) μL/w 3× of controls and compounds were diluted in Standard Tyrode's Buffer+0.01% fatty acid free BSA (final concentration=0.0033%) and injected at the FLIPRTetra®, recording the kinetic calcium traces for 3 minutes. Standard Tyrode's buffer composition: 5 mM KCl, 130 mM NaCl, 2 mM CaCl2), 5 mM NaHCO3, 1 mM MgCl2, 20 mM HEPES, pH7.4.

`Cc1nn(-c2ccccc2)c(CSc2ccc(CCO)cc2)c1C#N` [Example 59, 5-[[4-(2-hydroxyethyl)phenyl]sulfanylmethyl]-3-methyl-1-phenyl-pyrazole-4-carbonitrile] and `Cc1cccc(-n2nc(C)c(C#N)c2COc2ccc(CCO)cc2)c1` [Example 73, 5-[[4-(2-hydroxyethyl)phenoxy]methyl]-3-methyl-1-(m-tolyl)pyrazole-4-carbonitrile] are within 1.5-fold of each other in EC50: 2.63 µM for the first, 1.98 µM for the second.

Going from `Cc1nn(-c2ccccc2)c(COc2ccc3n[nH]cc3c2)c1C#N` [Example 61, 5-(2~{H}-indazol-5-yloxymethyl)-3-methyl-1-phenyl-pyrazole-4-carbonitrile] to `Cc1nn(-c2ccccc2)c(COc2ccc3ccncc3c2)c1C#N` [Example 62, 5-(7-isoquinolyloxymethyl)-3-methyl-1-phenyl-pyrazole-4-carbonitrile], the EC50 rises from 1.02 µM to 2.6 µM (2.5-fold).

First: Cc1nn(-c2ccccc2)c(COc2cccc3cccnc23)c1C#N [Example 63, 3-methyl-1-phenyl-5-(8-quinolyloxymethyl)pyrazole-4-carbonitrile]
Second: Cc1nn(-c2ccccc2)c(COc2cccnc2F)c1C#N [Example 65, 5-[(2-fluoro-3-pyridyl)oxymethyl]-3-methyl-1-phenyl-pyrazole-4-carbonitrile]
The EC50 of the first is 4.6-fold higher: 16.4 µM for the first, 3.56 µM for the second.

Going from `Cc1nn(-c2ccccc2)c(COc2cccnc2C#N)c1C#N` [Example 64, 3-[(4-cyano-5-methyl-2-phenyl-pyrazol-3-yl)methoxy]pyridine-2-carbonitrile] to `Cc1ccncc1OCc1c(C#N)c(C)nn1-c1ccccc1` [Example 68, 3-methyl-5-[(4-methyl-3-pyridyl)oxymethyl]-1-phenyl-pyrazole-4-carbonitrile], the EC50 falls from 19.1 µM to 8.32 µM (2.3-fold).

Compared with `Cc1ccc(OCc2c(C#N)c(C)nn2-c2ccccc2)cn1` [Example 69, 3-methyl-5-[(6-methyl-3-pyridyl)oxymethyl]-1-phenyl-pyrazole-4-carbonitrile], `Cc1ccnc(C)c1OCc1c(C#N)c(C)nn1-c1ccccc1` [Example 70, 5-[(2,4-dimethyl-3-pyridyl)oxymethyl]-3-methyl-1-phenyl-pyrazole-4-carbonitrile] is 4.3-fold lower in EC50: 9.82 µM for the first, 2.3 µM for the second.

`Cc1nn(-c2ccccc2)c(COc2ccc(F)nc2F)c1C#N` [Example 71, 5-[(2,6-difluoro-3-pyridyl)oxymethyl]-3-methyl-1-phenyl-pyrazole-4-carbonitrile] and `Cc1nn(-c2cccc(Cl)c2)c(COc2ccc(CCO)cc2)c1C#N` [Example 75, 1-(3-chlorophenyl)-5-[[4-(2-hydroxyethyl)phenoxy]methyl]-3-methyl-pyrazole-4-carbonitrile] are within 1.5-fold of each other in EC50: 5.69 µM for the first, 4.61 µM for the second.

Going from `Cc1ccc(-n2nc(C)c(C#N)c2COc2ccc(CCO)cc2)cc1` [Example 74, 5-[[4-(2-hydroxyethyl)phenoxy]methyl]-3-methyl-1-(p-tolyl)pyrazole-4-carbonitrile] to `Cc1nn(-c2ccc(Cl)cc2)c(COc2ccc(CCO)cc2)c1C#N` [Example 76, 1-(4-chlorophenyl)-5-[[4-(2-hydroxyethyl)phenoxy]methyl]-3-methyl-pyrazole-4-carbonitrile], the EC50 rises from 0.49 µM to 0.76 µM (1.6-fold). The first is the more potent here.

First: Cc1nn(-c2cccc(C(F)(F)F)c2)c(COc2ccc(CCO)cc2)c1C#N [Example 77, 5-[[4-(2-hydroxyethyl)phenoxy]methyl]-3-methyl-1-[3-(trifluoromethyl)phenyl]pyrazole-4-carbonitrile]
Second: COc1cccc(-n2nc(C)c(C#N)c2COc2ccc(CCO)cc2)c1 [Example 79, 5-[[4-(2-hydroxyethyl)phenoxy]methyl]-1-(3-methoxyphenyl)-3-methyl-pyrazole-4-carbonitrile]
The EC50 of the first is 5.5-fold higher: 9.03 µM for the first, 1.64 µM for the second. The second is the more potent here.

Work on `CCc1ccc(-n2nc(C)c(C#N)c2COc2ccc(CCO)cc2)cc1` [Example 78, 1-(4-ethylphenyl)-5-[[4-(2-hydroxyethyl)phenoxy]methyl]-3-methyl-pyrazole-4-carbonitrile] yielded an EC50 of 0.38 µM.
